Earlier results as cited in patent US20040116329A1, “Inhibition of proteasomes to prevent restenosis” (priority 2004, published 2004).
Read-outs that look alike come from different tables or passages of the source.

Tests used:
[1] = test system: apoptosis; conditions: through stabilization of proteins critical for cell cycle progression and control of apoptosis
[2] = test system: various tumors
[3] = given orally
[4] = test system: SMC; conditions: in vitro
[5] = test system: SMC; conditions: in vitro; remark: listed apart in the source
[6] = test system: neointimal accumulation; conditions: in vivo, rat carotid artery injury model
[7] = test system: apoptosis; conditions: biologically relevant concentrations

Compound	induction of apoptosis [1]	activity in tumor treatment in combination ([2]; in combination with standard chemotherapeutic agents or radiation)	volume of various tumors ([2]; in vivo)	major side effects [3]	platelet-derived growth factor-stimulated SMC migration [4]	SMC proliferation [5]	neointimal accumulation [6]	induction of apoptosis [7]
CC(C)C[C@H](NC(=O)[C@H](Cc1ccccc1)NC(=O)c1cnccn1)B(O)O [LDP-341]	induce apoptosis	appears very active	effective in reducing the volume of various tumors	gastrointestinal in nature				
CC(=O)O[C@H]1C(=O)[C@@]2(C)[C@H]([C@H](OC(=O)c3ccccc3)[C@]3(O)C[C@H](OC(=O)[C@H](O)[C@@H](NC(=O)c4ccccc4)c4ccccc4)C(C)=C1C3(C)C)[C@]1(OC(C)=O)CO[C@@H]1C[C@@H]2O [paclitaxel]					inhibited	inhibited	inhibited neointimal accumulation	does not appear to induce apoptosis
